Source: patent US5679640A, “Immunosuppressant peptides” (priority 1995, dated 1997)
Non-standard residues stand in square brackets, D forms with d. Residues, ends and D or L forms follow the SMILES beside them. Hyp = O=C(O)[C@@H]1C[C@@H](O)CN1; Cha = N[C@@H](CC1CCCCC1)C(=O)O

Columns and labels:
HLA-DR1 = target: T1, HLA-DR1 (Homo sapiens, UniProt P01903+P01911, A100R/D57E/F55L/F60I/F76Y/I96L/L162R/M171V/P40L/Q125E/R42F/V115G/Y59C); experiment: DR-peptide binding assay, DR1; details: Table 3, binding affinity relative to HA 307-319 = 1
T1 construct: EBV-transformed homozygous cell lines were used as a source of DR molecules; endogenous in cells; host or cells: LG-2 (EBV-transformed human B cell line, DR1 homozygous); lysate purified on a monoclonal antibody LB3.1 column

DR4w4 = target: T2, DR4w4 (Homo sapiens, UniProt P01903+P01911, A100K/A169T/F76Y/I96L/K127E/L162R/M171V/N62H/P40V/Q125Y/R42H/S133A/S149N/S66Y/V115G/V209L/W38E); experiment: DR-peptide binding assay, DR4w4; details: Table 3, binding affinity relative to HA 307-319 = 1
T2 construct: EBV-transformed homozygous cell lines were used as a source of DR molecules; endogenous in cells; host or cells: Preiss or Beh (EBV-transformed human B cell lines, DR4 Dw4 homozygous); lysate purified on a monoclonal antibody LB3.1 column

DR4w14 = experiment: DR-peptide binding assay, DR4w14; design: species or system human; details: Table 3, […]

| MHC Binding Assay DR1 (HLA-DR1) | MHC Binding Assay DR4w4 (DR4w4) | MHC Binding Assay DR4w14 (DR4w14) | SMILES |
| --- | --- | --- | --- |
| ++ (affinity greater than 1.0) | ++ (affinity greater than 1.0) | ++ (affinity greater than 1.0) | CC(C)C[C@H](NC(=O)[C@@H](NC(=O)[C@H](C)NC(=O)[C@H](C)NC(=O)[C@H](C)NC(=O)[C@H](C)NC(=O)[C@H](Cc1ccccc1)NC(=O)[C@H](C)NC(=O)[C@H](C)NC(=O)[C@H](N)Cc1ccc(O)cc1)[C@@H](C)O)C(=O)N[C@@H](CCCCN)C(=O)N[C@@H](C)C(=O)N[C@@H](C)C(=O)N[C@H](C)C(N)=O (H-[dY]AAFAAAATLKAA[dA]-NH2) |
| ++ (affinity greater than 1.0) | ++ (affinity greater than 1.0) | ++ (affinity greater than 1.0) | CC(C)C[C@H](NC(=O)[C@@H](NC(=O)[C@H](CCCCN)NC(=O)[C@H](C)NC(=O)[C@H](C)NC(=O)[C@H](C)NC(=O)[C@H](Cc1ccccc1)NC(=O)[C@H](C)NC(=O)[C@H](C)NC(=O)[C@H](N)Cc1ccc(O)cc1)[C@@H](C)O)C(=O)N[C@@H](C)C(=O)N[C@@H](C)C(=O)N[C@@H](C)C(=O)N[C@H](C)C(N)=O (H-[dY]AAFAAAKTLAAA[dA]-NH2) |
| ++ (affinity greater than 1.0) | ++ (affinity greater than 1.0) | ++ (affinity greater than 1.0) | CC(C)C[C@H](NC(=O)[C@@H](NC(=O)[C@@H](NC(=O)[C@H](CCC(N)=O)NC(=O)[C@H](CCCNC(=N)N)NC(=O)[C@H](CCC(N)=O)NC(=O)[C@H](Cc1ccccc1)NC(=O)[C@H](C)NC(=O)[C@H](C)NC(=O)[C@H](N)Cc1ccc(O)cc1)[C@@H](C)O)[C@@H](C)O)C(=O)N[C@@H](CCCCN)C(=O)N[C@@H](C)C(=O)N[C@@H](C)C(=O)N[C@H](C)C(N)=O (H-[dY]AAFQRQTTLKAA[dA]-NH2) |
| ++ (affinity greater than 1.0) | ++ (affinity greater than 1.0) | ++ (affinity greater than 1.0) | CC(C)C[C@H](NC(=O)[C@@H](NC(=O)[C@@H](NC(=O)[C@H](CCC(N)=O)NC(=O)[C@H](CCCNC(=N)N)NC(=O)[C@H](CCC(N)=O)NC(=O)[C@H](Cc1ccccc1)NC(=O)[C@H](C)NC(=O)[C@H](C)NC(=O)[C@H](N)Cc1ccc(O)cc1)[C@@H](C)O)[C@@H](C)O)C(=O)N[C@@H](CCCCN)C(=O)N[C@@H](C)C(=O)N[C@@H](C)C(=O)N[C@H](C)C(=O)O (H-[dY]AAFQRQTTLKAA[dA]-OH) |
| + (0.51 to 1.0) | ++ (affinity greater than 1.0) | ++ (affinity greater than 1.0) | CC(=O)N[C@H](C)C(=O)N[C@@H](C)C(=O)N[C@@H](CC1CCCCC1)C(=O)N[C@@H](C)C(=O)N[C@@H](C)C(=O)N[C@@H](C)C(=O)N[C@@H](CCCCN)C(=O)N[C@H](C(=O)N[C@@H](C)C(=O)N[C@@H](C)C(=O)N[C@@H](C)C(=O)N[C@@H](C)C(=O)N[C@H](C)C(N)=O)[C@@H](C)O [Ac-aAXAAAKTAAAAa-NH2] |
| ++ (affinity greater than 1.0) | ++ (affinity greater than 1.0) | ++ (affinity greater than 1.0) | CC(=O)N[C@H](Cc1ccc(O)cc1)C(=O)N[C@@H](C)C(=O)N[C@@H](C)C(=O)N[C@@H](CC1CCCCC1)C(=O)N[C@@H](C)C(=O)N[C@@H](C)C(=O)N[C@@H](C)C(=O)N[C@@H](CCCCN)C(=O)N[C@H](C(=O)N[C@@H](C)C(=O)N[C@@H](C)C(=O)N[C@@H](C)C(=O)N[C@@H](C)C(=O)N[C@H](C)C(N)=O)[C@@H](C)O [Ac-yAAXAAAKTAAAAa-NH2] |
| ++ (affinity greater than 1.0) | ++ (affinity greater than 1.0) | ++ (affinity greater than 1.0) | CC(C)C[C@H](NC(=O)[C@@H](NC(=O)[C@H](C)NC(=O)[C@H](C)NC(=O)[C@H](C)NC(=O)[C@H](C)NC(=O)[C@H](CC1CCCCC1)NC(=O)[C@H](C)NC(=O)[C@@H](C)N)[C@@H](C)O)C(=O)N[C@@H](CCCCN)C(=O)N[C@@H](C)C(=O)N[C@@H](C)C(=O)N[C@H](C)C(N)=O [aAXAAAATLKAAa-NH2] |
| ++ (affinity greater than 1.0) | ++ (affinity greater than 1.0) | ++ (affinity greater than 1.0) | C[C@H](NC(=O)[C@H](C)NC(=O)[C@H](C)NC(=O)[C@@H](NC(=O)[C@H](CCCCN)NC(=O)[C@H](C)NC(=O)[C@H](C)NC(=O)[C@H](C)NC(=O)[C@H](CC1CCCCC1)NC(=O)[C@H](C)NC(=O)[C@@H](C)N)[C@@H](C)O)C(=O)N[C@@H](C)C(=O)N[C@H](C)C(N)=O [aAXAAAKTAAAAa-NH2] |
| ++ (affinity greater than 1.0) | ++ (affinity greater than 1.0) | ++ (affinity greater than 1.0) | C[C@H](NC(=O)[C@H](C)NC(=O)[C@H](C)NC(=O)[C@@H](NC(=O)[C@H](CCCCN)NC(=O)[C@H](C)NC(=O)[C@H](C)NC(=O)[C@H](C)NC(=O)[C@H](CC1CCCCC1)NC(=O)[C@@H](C)N)[C@@H](C)O)C(=O)N[C@@H](C)C(=O)N[C@H](C)C(N)=O [aXAAAKTAAAAa-NH2] (H-[dA][Cha]AAAKTAAAA[dA]-NH2) |
| ++ (affinity greater than 1.0) | ++ (affinity greater than 1.0) | ++ (affinity greater than 1.0) | C[C@H](NC(=O)[C@H](N)Cc1ccc(O)cc1)C(=O)N[C@@H](C)C(=O)N[C@@H](CC1CCCCC1)C(=O)N[C@@H](C)C(=O)N[C@@H](C)C(=O)N[C@@H](C)C(=O)N[C@@H](C)C(=O)N[C@H](C(=O)N[C@@H](CCCCN)C(=O)N[C@@H](C)C(=O)N[C@@H](C)C(=O)N[C@@H](C)C(=O)N[C@H](C)C(N)=O)[C@@H](C)O [yAAXAAAATKAAAa-NH2] (H-[dY]AA[Cha]AAAATKAAA[dA]-NH2) |
| ++ (affinity greater than 1.0) | ++ (affinity greater than 1.0) | ++ (affinity greater than 1.0) | C[C@H](NC(=O)[C@H](N)Cc1ccc(O)cc1)C(=O)N[C@@H](C)C(=O)N[C@@H](CC1CCCCC1)C(=O)N[C@@H](C)C(=O)N[C@@H](C)C(=O)N[C@@H](C)C(=O)N[C@@H](CCCCN)C(=O)N[C@H](C(=O)N[C@@H](C)C(=O)N[C@@H](C)C(=O)N[C@@H](C)C(=O)N[C@@H](C)C(=O)N[C@H](C)C(N)=O)[C@@H](C)O [yAAXAAAKTAAAAa-NH2] |

| SMILES | MHC Binding Assay DR1 (HLA-DR1) | MHC Binding Assay DR4w4 (DR4w4) | MHC Binding Assay DR4w14 (DR4w14) |
| --- | --- | --- | --- |
| CC(=O)N[C@H](C)C(=O)N[C@@H](C)C(=O)N[C@@H](CC1CCCCC1)C(=O)N[C@@H](C)C(=O)N[C@@H](C)C(=O)N[C@@H](C)C(=O)N[C@@H](C)C(=O)N[C@H](C(=O)N[C@@H](CC(C)C)C(=O)N[C@@H](CCCCN)C(=O)N[C@@H](C)C(=O)N[C@@H](C)C(=O)N[C@H](C)C(N)=O)[C@@H](C)O [Ac-aAXAAAATLKAAa-NH2] | ++ (affinity greater than 1.0) | ++ (affinity greater than 1.0) | ++ (affinity greater than 1.0) |
| CC(=O)N[C@H](Cc1ccc(O)cc1)C(=O)N[C@@H](C)C(=O)N[C@@H](C)C(=O)N[C@@H](CC1CCCCC1)C(=O)N[C@@H](C)C(=O)N[C@@H](C)C(=O)N[C@@H](C)C(=O)N[C@@H](C)C(=O)N[C@H](C(=O)N[C@@H](CC(C)C)C(=O)N[C@@H](CCCCN)C(=O)N[C@@H](C)C(=O)N[C@@H](C)C(=O)N[C@H](C)C(N)=O)[C@@H](C)O [Ac-yAAXAAAATLKAAa-NH2] | ++ (affinity greater than 1.0) | ++ (affinity greater than 1.0) | ++ (affinity greater than 1.0) |
| C[C@H](NC(=O)[C@H](C)NC(=O)[C@H](CC1CCCCC1)NC(=O)[C@H](C)NC(=O)[C@@H](C)N)C(=O)N[C@@H](C)C(=O)N[C@@H](C)C(=O)N1C[C@H](O)C[C@H]1C(=O)N[C@@H](CCCCN)C(=O)N[C@@H](C)C(=O)N[C@@H](C)C(=O)N[C@@H](C)C(=O)N[C@H](C)C(N)=O [aAXAAAABKAAAa-NH2] (H-[dA]A[Cha]AAAA[Hyp]KAAA[dA]-NH2) | ++ (affinity greater than 1.0) | ++ (affinity greater than 1.0) | ++ (affinity greater than 1.0) |
| C[C@H](NC(=O)[C@H](N)Cc1ccc(O)cc1)C(=O)N[C@@H](C)C(=O)N[C@@H](CC1CCCCC1)C(=O)N[C@@H](C)C(=O)N[C@@H](C)C(=O)N[C@@H](C)C(=O)N[C@@H](C)C(=O)N1C[C@H](O)C[C@H]1C(=O)N[C@@H](CCCCN)C(=O)N[C@@H](C)C(=O)N[C@@H](C)C(=O)N[C@@H](C)C(=O)N[C@H](C)C(N)=O [yAAXAAAABKAAAa-NH2] (H-[dY]AA[Cha]AAAA[Hyp]KAAA[dA]-NH2) | ++ (affinity greater than 1.0) | ++ (affinity greater than 1.0) | ++ (affinity greater than 1.0) |
| CC(C)C[C@H](NC(=O)[C@@H](NC(=O)[C@H](C)NC(=O)[C@H](C)NC(=O)[C@H](C)NC(=O)[C@H](C)NC(=O)[C@H](CC1CCCCC1)NC(=O)[C@H](C)NC(=O)[C@H](C)NC(=O)[C@H](N)Cc1ccc(O)cc1)[C@@H](C)O)C(=O)N[C@@H](CCCCN)C(=O)N[C@@H](C)C(=O)N[C@@H](C)C(=O)N[C@H](C)C(N)=O [yAAXAAAATLKAAa-NH2] | ++ (affinity greater than 1.0) | ++ (affinity greater than 1.0) | ++ (affinity greater than 1.0) |
